{"source": "paper PMC6114103", "about": "“17-DMAG inhibits the multiplication of several Babesia species and Theileria equi on in vitro cultures, and Babesia microti in mice” (International Journal for Parasitology: Drugs and Drug …, 2018)", "key": {"B. bovis": {"system": "B. bovis", "experiment": "effect of 17-DMAG on host erythrocytes: parasite subculture in pretreated bovine RBC", "type": "cell-based, Babesia bovis", "details": "bovine RBC incubated with 1 μM for 3 h, parasitemia 4 days", "description": "(§1) Prior to the subculture of parasites, bovine and equine RBC were incubated with 1 μM of 17-DMAG for 3 h. The RBC were washed three times with PBS and mixed with B. bovis and T. equi parasitized RBC to obtain 1% parasitemia (infected RBC). Subsequently, 100 μl of infected RBC was added to 900 μl of complete medium in a 24-well plate. The untreated erythrocytes were used as a control. The parasitemia was monitored daily via microscopy observation of a Giemsa-stained blood smear for 4 days. Furthermore, the effect of 17-DMAG on mice was evaluated using 8-week-old BALB/c mice. Groups 1 and 2, consisting of three mice each, received intraperitoneal injections of 17-DMAG at a concentration of 15 and 30 mg/kg BW, respectively, for 5 days. One group (three mice) remained as an untreated control."}, "[1]": {"experiment": "effect of 17-DMAG on uninfected mice", "type": "in vivo, BALB/c mice", "description": "as §1"}}}
{"smiles": "CO[C@H]1/C=C\\C=C(/C)C(=O)NC2=CC(=O)C(NCCN(C)C)=C(C[C@@H](C)C[C@H](OC)[C@H](O)[C@@H](C)/C=C(\\C)[C@@H]1OC(N)=O)C2=O", "note": "[17-DMAG, 17-dimethylaminoethylamino-17-demethoxygeldanamycin]", "values": [{"measurement": "multiplication of B. bovis in 17-DMAG-treated RBC versus normal RBC", "setting": "B. bovis", "result": "did not significantly differ"}, {"measurement": "mouse body weight", "setting": "[1]; 15 mg/kg BW intraperitoneal for 5 days", "result": "did not show any effect"}, {"measurement": "mouse body weight", "setting": "[1]; 30 mg/kg BW intraperitoneal for 5 days, day 10 post treatment, not significantly different from control", "result": "reduced slightly"}]}
